# System: cardiomyocyte network
# Test: Simultaneous measurement of extracellular potential (FP) and contractile force (optical imaging of probe microparticles) in cardiomyocyte network
# Type: cell-based
# From the text: FIG. 43 is a schematic diagram showing an example of a system configuration of the present invention to simultaneously measure the mechanical properties and electrical properties of cardiomyocytes. The present system includes (1) a cellular network chip that can be used for culturing a cell population, includes a plurality of micro-electrodes disposed on a substrate and can be used for acquiring cellular potential data of a small area of the population; (2) a chip mounter for mounting the chip and joining electrically with cell-stimulating and/or cellular potential measuring system; (3) an environmental control vessel which can be used to control the environment such as temperature, humidity, oxygen concentration and carbon dioxide concentration of the cell population being cultured; (4) a micro multi-electrode potential measurement system that can give stimulation to a specific cell of a cardiomyocyte population, and allows simultaneous continuous measurements of cellular potentials of various small areas in the cell population; (5) one or more position-coordinate probe microparticles configured to measure changes in shape of myocardial cells and allow easy identification of cardiomyocytes using a plastic, polymer, glass or metal microparticles such as polystyrene microparticles, glass microparticles or gold microparticles of sizes from at minimum about 0.1, 0.2 μm, 0.3 μm, 0.4 μm, 0.5 μm, 0.6 μm, 0.7 μm, or preferably about 0.8 μm, more preferably about 0.9 μm, or most preferably about 1 μm, to at most about 500 μm, 400 μm, 300 μm, preferably about 200 μm, more preferably about 100 μm or most preferably about 50 μm, wherein the particles are disposed in the cell population by mixing them on the surface of the cardiomyocyte population in the cell network chip or in the cell population and culturing them; (6) an optical image capturing system for optically measuring the microparticles, wherein the system includes a light source, an optical microscope and an image-capturing camera to capture the images of the microparticles; and (7) a computer system for image analysis, cellular potential analysis, stimulus control and/or integrated data acquisition, wherein the system is capable of measurements of cellular potential and analysis of waveforms of the potential, measurements of cell displacements by image analysis and feedback stimulation based on the analysis results. In the measurements using the device system, as for the stimulus to cause depolarization of the myocardial cells, the stimulus can be provided by selecting mainly from three means, i.e., (A) measurements using conduction of autonomous pulsation of the cardiomyocyte population, (B) measurements of conduction by providing a forced electrical stimulation from outside to a specific cell in the cardiomyocyte population and (C) measurements of conduction by providing a feed-back stimulus at a specific timing to meet the relationship of the delay time and the value of the cellular potential based on the cell voltage measured data to the specific cells in the cardiomyocyte population.
# FIG. 44 is an example of a data acquisition monitor screen showing an example of data obtained from an example of a system configuration of the present invention to simultaneously measure the mechanical properties and the electrical properties of cardiomyocytes. In a setting of this example, a large number of polystyrene microparticles are placed on the surface of the cardiomyocyte population, a probe-particle displacement-observation window for five of the polystyrene microparticles selected as probes is set, and the center of gravity of the window moves with the movement of the microparticles in the window, thereby displacement of the particular probe microparticles can be measured continuously as a change in vector time in the directions of the X-axis and Y-axis. […]
# [1] = drug concentration of 100 nM, FIG. 52B
smiles,measurement,setting,value
COc1ccc(CCN(C)CCCC(C#N)(c2ccc(OC)c(OC)c2)C(C)C)cc1OC (stereo not drawn) [verapamil],electrophysiological excitation,"1000 nM, FIG. 52A",does not occur
same,mechanical contraction,"1000 nM, FIG. 52A",mechanical contraction does not occur
same,angle fluctuation against decrease in contractile force,"administration of 10 nM, FIG. 54B",barely increases
same,fluctuation of contractile direction in the angular direction,"administration of 100 nM, FIG. 54B",rapid fluctuation
same,contractile force,[1],disappear rapidly
same,electrical firing of excitatory conduction of cells,[1],maintained
